Experimental data as given in US9339509B2, “Methods of use to orally and topically treat acne and other skin conditions by administering a 19-nor containing vitamin D analog with or without a retinoid” (Wisconsin Alumni Research Foundation, priority 2006, dated 2016).
Entries after “also recorded” stand apart in the source; their conditions may differ.

How the values were obtained:
Rhino mouse [1] = experiment: Comedolytic effect of topical application to the Rhino mouse (comedone area); type: in vivo; conditions: for response vs control in vivo at 0.217 µmol/kg: dose 217 nmol/kg; for comedone area relative to vehicle-treated group (FIG. 8, 9, 10): 217 nmole/kgBW/day; for response vs control in vivo at 0.069 µmol/kg: dose 69 nmol/kg; for comedone area (FIG. 7, FIG. 10): 69 nmole/kgBW/day; for comedone area relative to vehicle-treated group (FIG. 11): 72 h after final dose
Description: (§1) Rhino mice were used to topically and orally test the compounds and compositions of the invention. The Rhino mouse is a well-established animal model used to study the comedolytic effects of anti-acne agents including retinoids. (See Boulcier M et al., Experimental Models in Skin Pharmacology, 1990, In Pharmacological Reviews 42:127-15). Mirshahpanah and Maibach, 2007, Cutaneous and Ocular Toxicology 26:195-202). The Rhino mouse model was used to study the therapeutic potential of 2-Methylene-19-nor-20(S)-1α-hydroxy-bishomopregnacalciferol (2MBisP), 19-Nor-26,27-dimethylene-20(S)-2-methylene-1α,25-dihydroxyvitamin D3 (CAGE-3), NEL, 24R-2MD2, Vit-III (17-20E), 2MPregna, 2MP, 20R-2MbisP, 2MTrisP, FF-44, FF-55, HPBS, VD-03 and atRA.
(§2) Animals and dose administration. Rhino mice 6-10 weeks old were dosed via the oral and/or topical route. In the majority of studies, the mice were dosed daily. In one topical study, the efficacy of daily versus intermittent (Monday/Wednesday/Friday) dosing was compared. The mice were weighed three times per week and doses were adjusted weekly based on body weight. The topical formulations were applied to the back of the animal in a maximum volume of 110 μL. The topical formulations were made by mixing the APIs with a topical carrier comprising 70 vol % propylene glycol and 30 vol % ethanol or 30 vol % propylene glycol and 70 vol % ethanol, as indicated. The topical vehicle control was the vehicle carrier solution matched to the formulation containing API and vehicle carrier.
(§3) The oral formulation was made by mixing the APIs with Wesson® soybean oil or NeoBee® oil. The oral dose was delivered to the back of the mouth of each mouse. Mice were sacrificed 4 hours after the final oral dose and 72 hours after the final topical dose. At sacrifice, the dorsal skin was collected for histological studies.
(§4) Comedolytic effect. The extent of the comedolytic effect (i.e., efficacy) was assessed by measuring the average area of the comedones, whereby the smaller the area, the larger the effect. The comedone area was determined by histological analysis of tissue sections based on a method developed in our lab (see FIG. 2). Skin was fixed overnight in 4% paraformaldehyde at 4 deg. C. with gentle agitation and dehydrated the next day into 100% methanol. Samples were embedded in paraffin and a total of nine 10 micron sections 150 microns apart were prepared from each Rhino mouse. Five of the nine sections were digitally imaged (6× magnification) for comedone analysis using Metamorph Imaging Software (trace function). The perimeter of each comedone on the images taken from the 5 sections was then traced using a Wacom Intuos 3 Graphics Tablet interfaced with the software. The number of pixels comprising the area of each individual comedone was obtained and transferred to an Excel spreadsheet, and the mean number of pixels per comedone was obtained for each Rhino mouse. For comedones that were completely healed (area=0) a pixel value approaching 0 (<10) was entered into the spreadsheet. The individual comedone area average for each mouse was then used to calculate the treatment group mean. Results in the figures are expressed in terms of mean±standard error of the mean.
Preparation of topical formulations containing 2MBisP, CAGE-3, 24R-2MD2, VitIII (17-20E), NEL, VD-03, 2MPregna, 2MP, 20R-2MBisP, 2MTrisP, FF-44, FF-55, and HPBS. Separate concentrated ethanolic stocks of 2MBisP, CAGE-3, 24R-2MD2, VitIII (17-20E) and NEL were diluted to a final concentration containing 70 vol % propylene glycol and 30 vol % ethanol or 30 vol % propylene glycol and 70 vol % ethanol as the excipient carrier system. The mixture was thoroughly mixed. The topical dosing formulation delivered the desired dosing amount of drug on a per kilogram body weight basis. A dose ranging from 100-110 μL in volume was administered to the back of the mouse. An average weight of 24 or 30 g/mouse was assumed in dose volume calculations. […]

Rhino mouse [2] = experiment: Comedolytic effect of oral administration to the Rhino mouse (comedone area); type: in vivo; conditions: oral daily 24 days
Description: as §1, §2, §3, §4
Preparation of oral dosing solutions containing 2MBisP, CAGE-3, 24R-2MD2, VitIII (17-20E) and NEL. Separate concentrated stocks of 2MBisP, CAGE-3, 24R-2MD2, VitIII (17-20E) and NEL were obtained in ethanol. The concentration was determined spectrophotometrically using a molar extinction coefficient=42,000 and a λmax=252.7. […] The final dose was delivered in ≦50 μL of oil.
Preparation of oral atRA dosing formulation. A concentrated stock solution containing atRA was prepared in dichloromethane. The atRA concentrated stock solution was diluted into ethanol. The concentration of atRA in that diluted stock solution was determined spectrophotometrically, whereby the molar extinction coefficient=45,200 and λmax=350. The purity of atRA was determined to be >99% by HPLC. […]

[3] = Mus musculus, 504 h, daily topical ca. 3 weeks, 70 vol % ethanol/30 vol % propylene glycol, mean ± SEM, read-out: Comedone Area (% Vehicle)
[4] = daily topical 3 weeks, 70 vol % ethanol/30 vol % propylene glycol
[5] = topical 217 nmole/kgBW daily (total of 22 doses), 70 vol % ethanol/30 vol % propylene glycol
[6] = topical 217 nmole/kgBW intermittently Monday, Wednesday, Friday (total of 10 doses), 70 vol % ethanol/30 vol % propylene glycol

## C=C1[C@H](O)CC(=C/C=C2\CCC[C@]3(C)C([C@H](C)/C=C/[C@@H](C)C(C)(C)O)CC[C@@H]23)C[C@H]1O (stereo partly drawn) [24R-2MD2, 2-methylene-19-nor-(24R)-1α,25-dihydroxyvitamin D2]
Rhino mouse [1]; Mus musculus, 504 h, daily topical ca. 3 weeks, 70 vol % ethanol/30 vol % propylene glycol, dose 2.3 nmol/kg, mean ± SEM, read-out: Comedone Area (% Vehicle)
  response vs control in vivo at 0.0023 µmol/kg: 176 ± 55%
Rhino mouse [2]; 2.3 nmole/kgBW/day
  comedone area (FIG. 13): no significant reduction in comedone area

## C=C1[C@H](O)CC(=C/C=C2\CCC[C@@]3(C)C2CCC3[C@H](C)CC)C[C@H]1O (stereo partly drawn) [20R-2MBisP, (20R)-1α-hydroxy-2-methylene-19-nor-bishomopregnacalciferol]
Rhino mouse [1]; [3]
  response vs control in vivo at 0.217 µmol/kg: 136 ± 17%
Rhino mouse [1]; Mus musculus, 504 h, daily topical ca. 3 weeks, 70 vol % ethanol/30 vol % propylene glycol, dose 694 nmol/kg, mean ± SEM, read-out: Comedone Area (% Vehicle)
  response vs control in vivo at 0.694 µmol/kg: 45 ± 6%
Rhino mouse [1]; Mus musculus, 504 h, daily topical ca. 3 weeks, 70 vol % ethanol/30 vol % propylene glycol, dose 2187 nmol/kg, mean ± SEM, read-out: Comedone Area (% Vehicle)
  response vs control in vivo at 2.187 µmol/kg: 17 ± 3%
Rhino mouse [1]; [4]
  comedone area relative to vehicle-treated group (FIG. 8, 9, 10): insignificant effect
Rhino mouse [1]; daily topical 3 weeks, 70 vol % ethanol/30 vol % propylene glycol, 694 nmole/kgBW/day
  comedone area relative to vehicle-treated group (FIG. 8): significant reduction

## C=C1[C@H](O)CC(=C/C=C2\CCC[C@@]3(C)C2CCC3[C@@H](C)CCC)C[C@H]1O (stereo partly drawn) [2MTrisP, 2-methylene-(20S)-19-nor-1α-hydroxy-trishomopregnacalciferol]
Rhino mouse [1]; [3]
  response vs control in vivo at 0.217 µmol/kg: 66 ± 9%
Rhino mouse [1]; [4]
  comedone area relative to vehicle-treated group (FIG. 8, 9, 10): significant reduction in comedone area

## C=C1/C(=C\C=C2/CCC[C@]3(C)[C@@H]([C@H](C)CCCC(C)(C)O)CC[C@@H]23)C[C@@H](O)C[C@@H]1O [1,25(OH)2D3, 1,25-DIHYDROXYVITAMIN D3, reference compound]
Rhino mouse [1]; Mus musculus, 504 h, daily topical ca. 3 weeks, 70 vol % ethanol/30 vol % propylene glycol, dose 6.0 nmol/kg, mean ± SEM, read-out: Comedone Area (% Vehicle)
  response vs control in vivo at 0.006 µmol/kg: 187 ± 30%

## C=C1[C@H](O)CC(=C/C=C2\CCCC3(C)C(CC)CCC23)C[C@H]1O (stereo partly drawn) [2MPregna, 2-methylene-19-nor-1α-hydroxy-pregnacalciferol]
Rhino mouse [1]; [3]
  response vs control in vivo at 0.217 µmol/kg: 63 ± 14%
Rhino mouse [1]; [4]
  comedone area relative to vehicle-treated group (FIG. 8, 9, 10): significant reduction in comedone area

## C=C1[C@H](O)CC(=C/C=C2\CCC[C@]3(C)/C(=C(\C)CCCC(C)(C)O)CC[C@@H]23)C[C@H]1O [VitIII (17-20E), 2-methylene-1α,25-dihydroxy-(17E)-17(20)-dehydro-19-nor-vitamin D3]
Rhino mouse [1]; Mus musculus, 504 h, daily topical ca. 3 weeks, 70 vol % ethanol/30 vol % propylene glycol, dose 24 nmol/kg, mean ± SEM, read-out: Comedone Area (% Vehicle)
  response vs control in vivo at 0.024 µmol/kg: 116 ± 15%
Rhino mouse [2]; 24 nmole/kgBW/day
  comedone area (FIG. 13): no significant reduction in comedone area

## C=C1[C@H](O)CC(=C/C=C2\CCC[C@@]3(C)C2CCC3[C@H](C)CC(F)F)C[C@H]1O (stereo partly drawn) [FF-44, 2-methylene-(20R)-23,23-difluoro-1α-hydroxy-19-nor-bishomopregnacalciferol]
Rhino mouse [1]; [3]
  response vs control in vivo at 0.069 µmol/kg: 104 ± 20%
  response vs control in vivo at 0.217 µmol/kg: 47 ± 12%
Rhino mouse [1]; [4]
  comedone area (FIG. 7, FIG. 10): insignificant effect
  comedone area relative to vehicle-treated group (FIG. 8, 9, 10): significant reduction in comedone area
Rhino mouse [1]; [5]
  comedone area relative to vehicle-treated group (FIG. 11): significant reduction in comedone area
Rhino mouse [1]; [6]
  comedone area relative to vehicle-treated group (FIG. 11): significant reduction in comedone area

## C=C1[C@H](O)CC(=C/C=C2\CCC[C@]3(C)C([C@H](C)CCC[C@H](C)O)CC[C@@H]23)C[C@H]1O (stereo partly drawn) [NEL, 2-methylene-(20R,25S)-19,26-dinor-1α,25-dihydroxyvitamin D3]
Rhino mouse [1]; Mus musculus, 504 h, daily topical ca. 3 weeks, 70 vol % ethanol/30 vol % propylene glycol, dose 7.5 nmol/kg, mean ± SEM, read-out: Comedone Area (% Vehicle)
  response vs control in vivo at 0.0075 µmol/kg: 156 ± 34%
Rhino mouse [1]; Mus musculus, 504 h, daily topical ca. 3 weeks, 70 vol % ethanol/30 vol % propylene glycol, dose 25 nmol/kg, mean ± SEM, read-out: Comedone Area (% Vehicle)
  response vs control in vivo at 0.025 µmol/kg: 145 ± 24%
Rhino mouse [2]; 7.5 nmole/kgBW/day
  comedone area (FIG. 14): no significant reduction in comedone area
Rhino mouse [2]; 25 nmole/kgBW/day
  comedone area (FIG. 14): no significant reduction in comedone area

## C=C1[C@H](O)CC(=C/C=C2\CCC[C@@]3(C)C2CCC3[C@@H](C)CC(F)F)C[C@H]1O (stereo partly drawn) [FF-55, 2-methylene-(20S)-23,23-difluoro-1α-hydroxy-19-nor-bishomopregnancalciferol]
Rhino mouse [1]; [3]
  response vs control in vivo at 0.069 µmol/kg: 108 ± 35%
  response vs control in vivo at 0.217 µmol/kg: 53 ± 8%
Rhino mouse [1]; [4]
  comedone area (FIG. 7, FIG. 10): insignificant effect
  comedone area relative to vehicle-treated group (FIG. 8, 9, 10): significant reduction in comedone area
Rhino mouse [1]; [5]
  comedone area relative to vehicle-treated group (FIG. 11): significant reduction in comedone area
Rhino mouse [1]; [6]
  comedone area relative to vehicle-treated group (FIG. 11): significant reduction in comedone area

## C=C1[C@H](O)CC(=C/C=C2\CCC[C@]3(C)[C@@H]([C@@H](C)CCCC4(O)CCCC4)CC[C@@H]23)C[C@H]1O [CAGE-3, 19-nor-26,27-dimethylene-20(S)-2-methylene-1α,25-dihydroxyvitamin D3]
Rhino mouse [1]; topical 3 weeks, 30 vol % ethanol/70 vol % propylene glycol, 0.9 ng/day (ca. 100 pmole/kgBW/day), reduced to 0.45 ng/day on day 10 and 0.22 ng/day on day 19
  comedone area vs vehicle control (FIG. 3, FIG. 4): reduction in the comedone area; also recorded: reduced comedone area
Rhino mouse [2]; 68 pmole/kgBW/day
  comedone area (FIG. 12): reduction in the comedone area

## 2-(3′hydroxypropyl-1′,2′-idene)-19,23,24-trinor-(20S)-1α-hydroxyvitamin D3 [HPBS]
Rhino mouse [1]; daily topical ca. 3 weeks, 70 vol % ethanol/30 vol % propylene glycol, dose 217 to 122 nmol/kg (changed on day 3 or day 10), mean ± SEM
  Comedone Area (% Vehicle): 74 ± 10 % Vehicle

## C=C1[C@H](O)CC(=C/C=C2\CCC[C@@H]3C([C@@H](C)CCCC(C)(C)O)CC[C@@H]23)C[C@H]1O (stereo partly drawn) [VD-03, 2-methylene-18,19-dinor-(20S)-1α,25-dihydroxyvitamin D3]
Rhino mouse [1]; Mus musculus, 504 h, daily topical ca. 3 weeks, 70 vol % ethanol/30 vol % propylene glycol, dose 0.62 nmol/kg, mean ± SEM, read-out: Comedone Area (% Vehicle)
  response vs control in vivo at 0.00062 µmol/kg: 90 ± 14%

## C=C1[C@H](O)CC(=C/C=C2\CCCC3(C)C2CCC3C(C)C)C[C@H]1O (stereo partly drawn) [2MP, 1α-hydroxy-2-methylene-19-nor-homopregnacalciferol]
Rhino mouse [1]; [3]
  response vs control in vivo at 0.217 µmol/kg: 92 ± 20%
Rhino mouse [1]; [4]
  comedone area relative to vehicle-treated group (FIG. 8, 9, 10): smaller reduction in comedone area
